Measured values: patent US20060134063A1, “Agents for proliferating pancreatic beta-cells of the islets of langerhans, agents for suppressing apoptosis of said cells, and screening of candidate compounds for these agents” (priority 2000, published 2006)

Tests used:
[1] = test system: 5' upstream region of rat HGF gene; assay: HGF promoter/luciferase reporter assay in RINm5F cells; type: cell-based; conditions: -1336 to +85 construct; 10 mM nicotinamide; 24 h
Method: The 5′ upstream region (−1336 to +85) of rat HGF gene was inserted into the multicloning site of pGL3-Basic (Promega) to prepare a luciferase reporter gene construct. Rat insulinoma RINm5F cells were seeded at 1×10^5 cells/well in a 24-well plate, incubated for 2 days, then, transfected with the test luciferase reporter construct using DMRIE-C™ (Life Technologies, Inc.) as described in Akiyama, T. et al. (2001) Proc. Natl. Acad. Sci. USA 98, 48-53. […] Then, the cells were harvested in 1 ml of ice-cold phosphate-buffered saline (PBS), washed twice with PBS, and cell extracts were prepared in extraction buffer (0.1 M potassium phosphate, pH 6.8, 1 mM DTT). The protein concentration was determined using a Coomassie reagent kit (Pierce) and bovine serum albumin as a standard. Luciferase activity was determined using a chemiluminescence substrate and a Pica Gene™ Luminescence Kit (Toyo Ink Mfg. Co, Ltd., Tokyo, Japan). β-Galactosidase activity was measured using an Aurora™ GAL-XE (ICN).
Various lengths of 5′ upstream regions HGF gene (Okajima, A., Miyazawa, K. and Kitamura, N. (1993) Eur. J. Biochem. 213, 113-119 (GenBank Ac. No. D14341)) were inserted into the multicloning site of pGL3-Basic (Promega) to prepare luciferase reporter gene constructs (FIG. 10). […] The protein concentration was determined using a Coomassie reagent kit (Pierce) and bovine serum albumin as a standard. […]

[2] = test system: Reg gene; assay: RT-PCR of Reg gene expression in RINm5F cells; type: cell-based, rat; conditions: 24 h with stimulants
Method: The Reg gene expression was analyzed by RT-PCR. The cells were harvested after 24 h of culturing in a medium supplemented with stimulants, and total RNA was prepared using cesium trifluoroacetate as described in Takasawa, S. et al. (1993) J. Biol. Chem., 268, 26052-26054. RT-PCR was performed using primers corresponding to nucleotides 23 to 43 and 572 to 593 of rat Reg mRNA (Terazono, K. et al. (1988) J. Biol. Chem., 263, 2111-2114).

[3] = test system: RINm5F cell lines, #1, #6, and #24, which stably express the Reg protein receptor; assay: TUNEL apoptosis assay in RINm5F cell lines #1, #6, #24 expressing Reg protein receptor; type: cell-based, rat; conditions: 1,000 nM Reg protein; 20 ng/ml IL-6, 100 nM dexamethasone, 10 mM nicotinamide; 24 h
Method: Rat insulinoma RINm5F cell lines, #1, #6, and #24, which stably express Reg protein receptor (Kobayashi, S. et al. (2000) J. Biol. Chem. 275, 10723-10726) were similarly cultured as in Example 4 and 1,000 nM Reg protein and HGF at varied concentrations, 0, 2.5, and 25 ng/ml were added thereto. Twenty-four hours after the addition of Reg protein/HGF, apoptosis was measured by TUNEL method using an Apoptosis Screening kit (Wako Pure Chemical Industries Ltd., Osaka, Japan) as described in Kobayashi, S. et al. (2000) J. Biol. Chem. 275, 10723-10726.

[4] = test system: 90% depancreatized rats; conditions: PARP inhibitor-treated rats; cited from earlier work
[5] = test system: HGF gene; assay: RT-PCR of HGF gene expression in RINm5F cells; type: cell-based, rat; conditions: 10 mM nicotinamide; 24 h
Method: Rat insulinoma RINm5F cells were seeded at 1.5×10^5 cells/ml in a 25-cm^2 culture bottle. […] After a further 24-h incubation, total RNA was prepared using cesium trifluoroacetate as described in […]. et al. (1993) J. Biol. Chem. 268, 26052-26054 and Akiyama, T. et al. (2001) Proc. Natl. Acad. Sci. USA 98, 48-53. RT-PCR was performed using this RNA as a template and primers corresponding to nucleotides 1,556-1,575 and 2,208-2,227 of rat HGF mRNA (Okajima, A. et al. (1990) Eur. J. Biochem. 193, 375-381) as described in Sun, W. et al. (1999) Brain Res. 851, 46-53, to detect the expression of HGF gene. PCR was carried out by a two-step protocol as described in Sun, W. et al. (1999) Brain Res. 851, 46-53, with 33 cycles of the first step [denaturation (95° C., 40 s), primer annealing (60° C., 40 s), and primer elongation (72° C., 1 min)] followed by the 5 cycles of the second step [denaturation ([…], 40 s), primer annealing (60° C., 40 s), and primer elongation (72° C., 1 min)].

NC(=O)c1cccnc1 [nicotinamide]
transcriptional activity of HGF gene (luciferase), nicotinamide added to IL-6/dexamethasone [1]: further enhanced this transcriptional induction
Reg gene expression (Reg mRNA) [2]: no effect on Reg expression
apoptosis induced by Reg protein (TUNEL) [3]: did not
development of diabetes after 90% pancreatectomy [4]: preventing the development of diabetes
HGF gene expression (RT-PCR), PARP inhibitor added to IL-6/dexamethasone [5]: further enhanced HGF gene expression
